Assay results as given in patent publication US20230098944A1, “METHOD OF DECREASING AMYLOID BETA MONOMER LEVELS IN PATIENTS WITH COGNITIVE DECLINE” (Cognition Therapeutics, Inc., priority 2020, published 2023).
Read-outs that look alike come from different tables or passages of the source.

What was measured:
Aβ oligomers [1] = experiment: Microimmunoelectrode (MIE) measurement of Aβ oligomers in patient CSF after single dose (NCT03522129); format: in vivo, human
Experimental: (§1) Methods: A Phase 2 clinical trial (NCT03522129) was conducted enrolling patients with mild-to-moderate Alzheimer's disease (MMSE 18-26) into the Randomized, double-blind, placebo-controlled, single dose administration of CT1812 followed by hourly sampling of lumbar CSF via indwelling catheter for 24 hours. The primary objective of the study was to evaluate target engagement of CT1812 treatment by measuring the displacement of Aβ oligomers into cerebrospinal fluid (CSF). The was quantified by a measuring change from the baseline CSF Aβ oligomer concentration after dosing with CT1812 versus placebo. Microimmunoelectrodes (Yuede et al 2016) coated with oligomer-specific antibody, A11 were placed in CSF samples of Alzheimer's disease patient samples to detect soluble Aβ after a single dose of CT1812 (560 mg) or placebo. Results: Microimmunoelectrode (MIE) measurements of Aβ oligomers in CSF show a drug-dependent rise in Aβ oligomers over time.

Aβ oligomers [2] = experiment: Native Western Blot (82E1 antibody) measurement of Aβ oligomers in patient CSF (NCT03522129); format: in vivo, human
Aβ 40 and 42 monomers = Aβ 40 and 42 monomers in patient CSF after single dose (NCT03522129); format: in vivo, human; settings: single dose 560 mg, similar in all three patients including placebo
Experimental: as §1, with “[…] Percent change from baseline” for “Results: Microimmunoelectrode (MIE) measurements of Aβ oligomers in CSF show a drug-dependent rise”, “40 and 42 monomers were similar in all three patients (<50% increase). […] CSF Aβ oligomer levels were fit to a linear regression and the significance of the slope difference from zero was determined for each patient (FIG. 4 (measured by microimmunoelectrodes); FIG. 5 (measured by Western Blot)).” for “oligomers over time.”

[3] = Plasma and CSF pharmacokinetics from NCT03522129; format: in vivo, human; settings: single dose of CT1812 (560 mg); for AUC(0-t) / Cmax / Kp: 560 mg; for Kp: CSF/plasma
Patients = experiment: ADAS-COG score after 185 days of treatment versus placebo; format: in vivo, human; settings: day 185, treated at least 6 months (185 days), FIG. 7
Text: Patients treated for at least 6 months (185 days) with CT1812 were compared with patients who received placebo.

amyloid β monomer = settings: human subjects treated for 28 days; see 62/976,325; cited from earlier work
[4] = test system: amyloid β oligomers and monomers; settings: animal models and preclinical data; cited from earlier work

tmax ([3]; Plasma, Subject 90003): 2.00 h
AUC(0-t) ([3]; human, CSF, Subject 90001): 0.12 µg·h/mL
Cmax ([3]; human, CSF, Subject 90001): 0.0249 µg/mL
AUC(0-t) ([3]; human, CSF, Subject 90003): 0.0464 µg·h/mL
Cmax ([3]; human, CSF, Subject 90003): 0.00727 µg/mL
Kp ([3]; human, Subject 90001, read-out: CSF/Plasma Ratio based on AUC0-last): 0.0381
Kp ([3]; human, Subject 90001, read-out: CSF/Plasma Ratio based on Cmax): 0.0358
Kp ([3]; human, Subject 90003, read-out: CSF/Plasma Ratio based on AUC0-last): 0.0384
Kp ([3]; human, Subject 90003, read-out: CSF/Plasma Ratio based on Cmax): 0.0291
AUC(0-t) ([3]; human, plasma, Subject 90001): 3.16 µg·h/mL
Cmax ([3]; human, plasma, Subject 90001): 0.695 µg/mL
AUC(0-t) ([3]; human, plasma, Subject 90003): 1.21 µg·h/mL
Cmax ([3]; human, plasma, Subject 90003): 0.25 µg/mL
tmax ([3]; human, CSF, Subject 90003, read-out: tmax): 3 h
Compound: CC(C)(C)Oc1cc(CCC(C)(C)N2Cc3ccc(S(C)(=O)=O)cc3C2)ccc1O [CT1812]
linear slope of CSF Aβ oligomer level over time (MIE) (Aβ oligomers [1]; Patients 1 and 3, p<0.001 for each patient, R^2=0.7720 and 0.7898, placebo slope not different from zero): significantly non-zero
Aβ oligomer levels in CSF over time (MIE) (Aβ oligomers [1]; single dose 560 mg, hourly lumbar CSF for 24 hours, mild-to-moderate Alzheimer's disease patients, not seen in placebo patient): apparent increase with time
Aβ oligomer increase, percent change from baseline in CSF (Aβ oligomers [1]; two treated patients, single dose 560 mg, no increase in placebo-treated patient, FIG. 4 (MIE), FIG. 5 (Western Blot)): more than 200%
linear slope of CSF Aβ oligomer level over time (Western Blot) (Aβ oligomers [2]; Patients 1 and 3, p<0.001 for each patient, R^2=0.9808 and 0.3997, placebo slope not different from zero): significantly non-zero
Aβ oligomer levels in CSF over time (Western Blot) (Aβ oligomers [2]; single dose 560 mg, hourly lumbar CSF for 24 hours, not seen in placebo patient): apparent increase with time
Percent change from baseline in Aβ 40 and 42 monomers (increase) (Aβ 40 and 42 monomers): < 50%
difference in Alzheimer's Disease Assessment Score (ADAS-COG) between treated and untreated patients (Patients): three-point difference
amyloid β monomer concentration in the cerebral spinal fluid or interstitial fluid (amyloid β monomer): no change
amyloid β oligomer concentration in cerebral spinal fluid and brain interstitial fluid [4]: selectively displace oligomers and increase their concentration
concentration of amyloid β monomers [4]: had not effect
